Measured values from article PMC5125710, “Mechanistic Studies and Modeling Reveal the Origin of Differential Inhibition of Gag Polymorphic Viruses by HIV-1 Maturation Inhibitors” (PLoS Pathogens, 2016).
pEC50, pKd: −log10 of the molar value. “And” between values parts separate entries of the source, which are not always exact repeats. Equal entries are not always repeated. Where two headings read alike, the source gives them in different places.

Assays:
[1] = biological target: T1, CA/SP1 cleavage of WT Gag VLPs by HIV-1 protease (Human immunodeficiency virus type 1 group M subtype B, UniProt P03348); type: biochemical; conditions: 3 μM MI
T1 construct: constructed to encode full length HIV-1 LAI Gag; made in house; host or cells: Gag VLPs from transfected 293T cells

[2] = biological target: ΔV370 HIV-1 Gag VLPs (Human immunodeficiency virus type 1 group M subtype B, UniProt P03348, DEL370-370); test: SPA radiolabeled competition binding assay, ΔV370 VLPs; design: Kd FC vs. WT: unit not given beside the values; conditions: for Kd FC vs. WT: ΔV370 VLP
[3] = system: LAI pseudotyped NLRepRlucP373 Δenv; type: cell-based; conditions: for Inhibition of luciferase activity in the infection stage: compound added at the transfection step (first step); for Inhibition of luciferase production: compound added only at the infection stage (second step)
[4] = system: HIV-1 NLRepRlucP373S Q369H; test: microbe, parasite or virus in culture; type: cell-based; conditions: Human immunodeficiency virus 1, MC assay
[5] = biological target: T2, V370A HIV-1 Gag VLPs (Human immunodeficiency virus type 1 group M subtype B, UniProt P03348, V370A); test: biochemical; type: binding; design: Kd FC vs. WT: unit not given beside the values
T2 construct: constructed to encode full length HIV-1 LAI Gag; made in house; host or cells: 293T cells, transfected with pGagOpt plasmid

[6] = system: HIV-1 NLRepRlucP373S V370A; type: cell-based; conditions: for SC Assay MPI (%): V370A virus; for log10 reduction in virus, single cycle antiviral assay, maximal inhibition: V370A, calculated from SC MPI
[7] = system: HIV-1 NLRepRlucP373S V370A; test: microbe, parasite or virus in culture; type: cell-based; conditions: for log10 reduction in virus, multiple cycle antiviral assay, maximal inhibition: V370A, calculated from MC MPI; for pEC50: Human immunodeficiency virus 1, V370A virus
[8] = system: HIV-1 NLRepRlucP373S ΔV370; type: cell-based; conditions: for log10 reduction in virus, single cycle antiviral assay, maximal inhibition: ΔV370, calculated from SC MPI; for SC Assay MPI (%): ΔV370 virus
[9] = system: HIV-1 NLRepRlucP373S (WT); type: cell-based; conditions: for SC Assay MPI (%): WT virus; for log10 reduction in virus, single cycle antiviral assay, maximal inhibition: WT, calculated from SC MPI
[10] = biological target: T3, V362I HIV-1 Gag VLPs (Human immunodeficiency virus type 1 group M subtype B, UniProt P03348, V362I); test: biochemical; type: binding; design: Kd FC vs. WT: unit not given beside the values
T3 construct: constructed to encode full length HIV-1 LAI Gag; made in house; host or cells: 293T cells, transfected with pGagOpt plasmid

[11] = biological target: CA/SP1 cleavage of ΔV370 Gag VLPs by HIV-1 protease (Human immunodeficiency virus type 1 group M subtype B, UniProt P03348, DEL370-370); test: HIV-1 VLP protease cleavage assay (LC/MS), ΔV370 VLPs; type: biochemical; conditions: 3 μM MI
[12] = biological target: T4, WT HIV-1 Gag VLPs (Human immunodeficiency virus type 1 group M subtype B, UniProt P03348); test: SPA radiolabeled competition binding assay, WT VLPs; design: Kd FC vs. WT: unit not given beside the values
T4 construct: constructed to encode full length HIV-1 LAI Gag; made in house; host or cells: 293T cells, transfected with pGagOpt plasmid; VLPs pelleted from supernatant

[13] = system: HIV-1 NLRepRlucP373S V362I; test: microbe, parasite or virus in culture; type: cell-based; conditions: for log10 reduction in virus, multiple cycle antiviral assay, maximal inhibition: V362I, calculated from MC MPI; for pEC50: Human immunodeficiency virus 1, V362I virus
[14] = system: HIV-1 NLRepRlucP373S ΔV370; test: microbe, parasite or virus in culture; type: cell-based; conditions: for pEC50: Human immunodeficiency virus 1; for log10 reduction in virus, multiple cycle antiviral assay, maximal inhibition: ΔV370, calculated from MC MPI
[15] = system: HIV-1 NLRepRlucP373S T371A; test: microbe, parasite or virus in culture; type: cell-based; conditions: Human immunodeficiency virus 1, MC assay
[16] = system: HIV-1 NLRepRlucP373S V370M; test: microbe, parasite or virus in culture; type: cell-based; conditions: for pEC50: Human immunodeficiency virus 1, MC assay
[17] = system: HIV-1 NLRepRlucP373S V370A/Δ371T; test: microbe, parasite or virus in culture; type: cell-based; conditions: for pEC50: Human immunodeficiency virus 1, MC assay
[18] = system: HIV-1 NLRepRlucP373S ΔT371; test: microbe, parasite or virus in culture; type: cell-based; conditions: for pEC50: Human immunodeficiency virus 1, MC assay
[19] = system: HIV-1 NLRepRlucP373S (WT); test: microbe, parasite or virus in culture; type: cell-based; conditions: for MC Assay MPI (%): maximal percent inhibition at two highest drug concentrations
[20] = from mean C24 and free fraction of 0.14
[21] = system: HIV-1; conditions: cited from earlier work

C=C(C)[C@@H]1CC[C@]2(C(=O)O)CC[C@]3(C)[C@H](CC[C@@H]4[C@@]5(C)CC[C@H](OC(=O)CC(C)(C)C(=O)O)C(C)(C)[C@@H]5CC[C@]43C)[C@@H]12 [BVM, bevirimat, reference compound]
Inhibition of CA/SP1 cleavage ([1]; 2 hours): 39%
Inhibition of CA/SP1 cleavage ([1]; 4 hours): 1%
Kd FC vs. WT [2]: 48
Inhibition of luciferase activity in the infection stage [3]: inhibiting luciferase production only when added in the first step
pEC50 [4]: 8.15
Kd FC vs. WT ([5]; V370A VLP): 9.1
SC Assay MPI (%) [6]: 19% and 19.0 +/- 3.5%
log10 reduction in virus, single cycle antiviral assay, maximal inhibition [6]: -0.08 log10
MC Assay MPI (%) ([7]; V370A virus): 65.4 +/- 3.8% and 65.4%
log10 reduction in virus, multiple cycle antiviral assay, maximal inhibition [7]: -0.46 log10
log10 reduction in virus, single cycle antiviral assay, maximal inhibition [8]: 0.06 log10
SC Assay MPI (%) [8]: -26% and -25.6%
SC Assay MPI (%) [9]: 82.3 +/- 2.7% and 82% and 82.3%
log10 reduction in virus, single cycle antiviral assay, maximal inhibition [9]: -0.71 log10
Kd FC vs. WT ([10]; V362I VLP): 2.9
Inhibition of CA/SP1 cleavage ([11]; whole time course): not inhibitory at any time point
Kd FC vs. WT ([12]; WT VLP): 1.0
MC Assay MPI (%) ([13]; V362I virus): 81.3 +/- 2.0% and 81.3%
log10 reduction in virus, multiple cycle antiviral assay, maximal inhibition [13]: -0.73 log10
pEC50 ([14]; ΔV370 virus, MC assay): < 5.00
log10 reduction in virus, multiple cycle antiviral assay, maximal inhibition [14]: -0.04 log10
MC Assay MPI (%) ([14]; ΔV370 virus): 9.2+/- 6.3% and 9% and 9.2%
pEC50 [15]: 7.40

C=C(C)[C@@H]1CC[C@]2(C(=O)O)CC[C@]3(C)[C@H](CC[C@@H]4[C@@]5(C)CC=C(c6ccc(C(=O)O)cc6)C(C)(C)[C@@H]5CC[C@]43C)[C@@H]12 [BMS-1]
Kd FC vs. WT ([5]; V370A VLP): 7.0
pKd ([5]; V370A VLP, competition displacement of [3H]-BMS-977660, read-out: Kd): 6.75
pEC50 [16]: < 5.40
Kd FC vs. WT ([10]; V362I VLP): 1.9
pKd ([10]; V362I VLP, competition displacement of [3H]-BMS-977660, read-out: Kd): 7.31
Kd FC vs. WT ([12]; WT VLP): 1.0
pKd ([12]; WT VLP, competition displacement of [3H]-BMS-977660, read-out: Kd): 7.60
pEC50 [17]: < 5.00
pEC50 ([13]; MC assay): 6.67
MC Assay MPI (%) ([13]; V362I virus): 71.4 +/- 5.4% and 71.4%
pEC50 ([14]; ΔV370 virus, MC assay): < 5.22
MC Assay MPI (%) ([14]; ΔV370 virus): 3.7 +/- 2.9% and 3.7%
pEC50 [18]: 6.53
pEC50 [15]: 7.55

COc1ccnc2[nH]cc(C(=O)C(=O)N3CCN(C(=O)c4ccccc4)C[C@H]3C)c12 [BMS-378806, 4-benzoyl-1-[(4-methoxy-1H-pyrrolo[2,3-b]pyridin-3-yl)oxoacetyl]-2-(R)-methylpiperazine]
Inhibition of luciferase production [3]: fully active

Cc1c(O)cccc1C(=O)N[C@@H](CSc1ccccc1)[C@H](O)CN1C[C@H]2CCCC[C@H]2C[C@H]1C(=O)NC(C)(C)C [NFV, nelfinavir, reference compound]
Inhibition of luciferase activity in the infection stage [3]: luciferase activity is inhibited
Inhibition of luciferase production [3]: luciferase production is not inhibited
SC Assay MPI (%) [6]: 99.0%
pEC50 ([7]; MC assay): 8.39
MC Assay MPI (%) ([7]; V370A virus): 99.9%
FC = EC50 (SDM)/EC50 (WT) ([7]; V370A virus, MC assay): 1.0
pEC50 [16]: 8.35
FC = EC50 (SDM)/EC50 (WT) ([16]; V370M virus, MC assay): 1.0
SC Assay MPI (%) [9]: 99.3%
pEC50 ([19]; Human immunodeficiency virus 1, WT virus, MC assay): 8.37
FC = EC50 (SDM)/EC50 (WT) ([19]; WT virus, MC assay): 1.0
MC Assay MPI (%) ([19]; WT virus): 100%
pEC50 [17]: 8.24
FC = EC50 (SDM)/EC50 (WT) ([17]; MC assay): 1.3
pEC50 ([13]; MC assay): 8.37
MC Assay MPI (%) ([13]; V362I virus): 100%
FC = EC50 (SDM)/EC50 (WT) ([13]; V362I virus, MC assay): 1.0
pEC50 ([14]; ΔV370 virus, MC assay): 8.28
FC = EC50 (SDM)/EC50 (WT) ([14]; ΔV370 virus, MC assay): 1.2
pEC50 [18]: 8.70
FC = EC50 (SDM)/EC50 (WT) ([18]; ΔT371 virus, MC assay): 0.5

C=C(C)[C@@H]1CC[C@]2(NCCN3CCS(=O)(=O)CC3)CC[C@]3(C)[C@H](CC[C@@H]4[C@@]5(C)CC=C(c6ccc(C(=O)O)cc6)C(C)(C)[C@@H]5CC[C@]43C)[C@@H]12 [BMS-955176]
Mean free concentration [20]: 213 nM
Inhibition of CA/SP1 cleavage ([1]; 4 hours): sustained inhibition
pKd [2]: 7.47
Kd FC vs. WT [2]: 10
Inhibition of luciferase activity in the infection stage [3]: inhibiting luciferase production only when added in the first step
pKd [5]: 8.19
Kd FC vs. WT ([5]; V370A VLP): 2
SC Assay MPI (%) [6]: 76.5 +/- 3.0% and 76.5%
log10 reduction in virus, single cycle antiviral assay, maximal inhibition [6]: -0.64 log10
pEC50 ([7]; MC assay): 8.57
MC Assay MPI (%) ([7]; V370A virus): 98.2 +/- 1.3% and 98.2%
log10 reduction in virus, multiple cycle antiviral assay, maximal inhibition [7]: -1.73 log10
log10 reduction in virus, single cycle antiviral assay, maximal inhibition [8]: -0.27 log10
SC Assay MPI (%) [8]: 45.9%
Clinical VLR, maximal median HIV-1 log10 RNA reduction ([21]; subtype B Gag polymorphs (compared to V370A, V362I), 40 mg): -1.71 log10
Clinical VLR, maximal median HIV-1 log10 RNA reduction ([21]; subtype B WT genotype, 40 mg QD, 10 day monotherapy): -1.75 log10
Clinical VLR, maximal median HIV-1 log10 RNA reduction ([21]; subtype C viruses (compared to ΔV370), 40 mg): -1.35 log10
pEC50 [16]: 8.55
SC Assay MPI (%) [9]: 93.0 +/- 2.5% and 93%
log10 reduction in virus, single cycle antiviral assay, maximal inhibition [9]: -1.15 log10
pKd [10]: 8.37
Kd FC vs. WT ([10]; V362I VLP): 1.3
Inhibition of CA/SP1 cleavage ([11]; 4 hour time point): 13%
pKd [12]: 8.49
Kd FC vs. WT ([12]; WT VLP): 1.0
MC Assay MPI (%) ([19]; WT virus): 100 +/- 0.4% and 100%
log10 reduction in virus, multiple cycle antiviral assay, maximal inhibition ([19]; WT, calculated from MC MPI): < -2.00 log10
pEC50 [17]: 8.18
pEC50 ([13]; MC assay): 8.35
MC Assay MPI (%) ([13]; V362I virus): 93.8 +/- 1.8% and 93.8%
log10 reduction in virus, multiple cycle antiviral assay, maximal inhibition [13]: -1.20 log10
pEC50 ([14]; ΔV370 virus, MC assay): 7.89
log10 reduction in virus, multiple cycle antiviral assay, maximal inhibition [14]: -1.09 log10
MC Assay MPI (%) ([14]; ΔV370 virus): 91.9 +/- 4.4% and 92% and 91.9%
pEC50 [18]: 8.14
pEC50 [15]: 8.70
